Data reported in patent publication US10358663B2, “Method of production of 2,4-dihydroxybutyric acid” (ADISSEO FRANCE S.A.S., priority 2010, dated 2019).
Numbering of substitutions follows the chain as printed.

Experiments:
malic enzyme = target: T1, malic enzyme (Rattus norvegicus, UniProt P13697); details: cited from earlier work
T1 sequence (P13697 1-572): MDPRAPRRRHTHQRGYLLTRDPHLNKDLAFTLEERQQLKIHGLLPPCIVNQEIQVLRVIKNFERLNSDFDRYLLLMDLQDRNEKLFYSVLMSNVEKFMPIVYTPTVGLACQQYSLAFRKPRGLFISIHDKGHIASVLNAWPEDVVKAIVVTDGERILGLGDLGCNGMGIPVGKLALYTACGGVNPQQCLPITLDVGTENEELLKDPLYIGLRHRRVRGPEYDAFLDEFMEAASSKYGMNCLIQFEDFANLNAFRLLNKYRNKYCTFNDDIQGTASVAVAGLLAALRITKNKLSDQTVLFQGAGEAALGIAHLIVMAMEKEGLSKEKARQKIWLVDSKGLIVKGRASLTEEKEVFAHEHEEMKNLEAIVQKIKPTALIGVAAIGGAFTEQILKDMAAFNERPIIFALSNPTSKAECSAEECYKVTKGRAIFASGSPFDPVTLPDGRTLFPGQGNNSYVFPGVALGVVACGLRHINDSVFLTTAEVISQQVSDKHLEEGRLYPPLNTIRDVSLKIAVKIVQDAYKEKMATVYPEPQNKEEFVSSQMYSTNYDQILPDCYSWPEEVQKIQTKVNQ

[1] = target: E. coli aspartate kinase LysC variant E119G E250K, SEQ ID NO: 39 (Escherichia coli, UniProt P08660, E119G/E250K); assay: Lysine inhibition of malate kinase activity, LysC E119G E250K; type: biochemical; details: elevated lysine concentrations
Sequence of E. coli aspartate kinase LysC variant E119G E250K, SEQ ID NO: 39 (P08660 whole entry E119G/E250K): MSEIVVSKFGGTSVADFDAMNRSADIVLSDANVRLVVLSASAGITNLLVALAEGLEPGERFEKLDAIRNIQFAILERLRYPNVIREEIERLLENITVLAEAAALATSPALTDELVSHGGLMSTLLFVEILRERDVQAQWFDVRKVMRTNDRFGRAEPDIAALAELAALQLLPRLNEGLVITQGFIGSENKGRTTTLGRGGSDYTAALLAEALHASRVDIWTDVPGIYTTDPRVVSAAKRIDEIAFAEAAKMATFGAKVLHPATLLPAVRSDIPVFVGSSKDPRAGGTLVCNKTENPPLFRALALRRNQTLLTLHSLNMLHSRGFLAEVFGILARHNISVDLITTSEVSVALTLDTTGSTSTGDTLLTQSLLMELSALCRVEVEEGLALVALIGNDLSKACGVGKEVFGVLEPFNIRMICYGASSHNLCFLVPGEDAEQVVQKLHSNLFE
Method: (§1) The assay mixture contained 50 mM Hepes (pH 7.5), 50 mM KCl, 5 mM MgCl2, 0.24 mM NADH, 0.96 mM ATP, 0.96 mM PEP, 9 μg/mL of lactate dehydrogenase (Sigma, L2500), 12.4 μg/mL pyruvate kinase (Sigma, P1506), and appropriate amounts of purified aspartate (malate) kinase. Reactions were started by adding 50 mM (L)-aspartate or (L)-malate. Enzymatic assays were carried out at 30° C. in 96-well flat bottomed microtiter plates in a final volume of 250 μL. The reactions were followed by the characteristic absorption of NADH at 340 nm in a microplate reader (BioRad 680XR).
(§2) Expression and purification of enzymes: Protein expression for the His-tagged enzymes LysC E119G, LysC E119G E250K, LysC E119G T344M, LysC E119G S345L, LysC E119G T352I was carried out as described in Example 1.
(§3) Enzymatic assay: Malate kinase activities were assayed as described in Example 1. Lysine concentration in the reaction buffer was varied.

[2] = target: E. coli aspartate kinase LysC variant E119G T344M, SEQ ID NO: 41 (Escherichia coli, UniProt P08660, E119G/T344M); assay: Lysine inhibition of malate kinase activity, LysC E119G T344M; type: biochemical; details: elevated lysine concentrations
Sequence of E. coli aspartate kinase LysC variant E119G T344M, SEQ ID NO: 41 (P08660 whole entry E119G/T344M): as the sequence (P08660 whole entry E119G/E250K) above, with K250E, T344M counted along it
Method: as §1, §2, §3

[3] = target: E. coli aspartate kinase LysC variant E119G S345L, SEQ ID NO: 45 (Escherichia coli, UniProt P08660, E119G/S345L); assay: Lysine inhibition of malate kinase activity, LysC E119G S345L; type: biochemical; details: elevated lysine concentrations
Sequence of E. coli aspartate kinase LysC variant E119G S345L, SEQ ID NO: 45 (P08660 whole entry E119G/S345L): as the sequence (P08660 whole entry E119G/E250K) above, with K250E, S345L counted along it
Method: as §1, §2, §3

[4] = target: T2, Metallosphaera sedula succinic semialdehyde reductase Ms-SSR, wild type, SEQ ID NO: 76 (Metallosphaera sedula, UniProt A4YGN0); assay: Malate semialdehyde reductase assay, Ms-SSR wild type; type: biochemical; details: pH 7.5, 30° C.
T2 sequence (A4YGN0 1-360): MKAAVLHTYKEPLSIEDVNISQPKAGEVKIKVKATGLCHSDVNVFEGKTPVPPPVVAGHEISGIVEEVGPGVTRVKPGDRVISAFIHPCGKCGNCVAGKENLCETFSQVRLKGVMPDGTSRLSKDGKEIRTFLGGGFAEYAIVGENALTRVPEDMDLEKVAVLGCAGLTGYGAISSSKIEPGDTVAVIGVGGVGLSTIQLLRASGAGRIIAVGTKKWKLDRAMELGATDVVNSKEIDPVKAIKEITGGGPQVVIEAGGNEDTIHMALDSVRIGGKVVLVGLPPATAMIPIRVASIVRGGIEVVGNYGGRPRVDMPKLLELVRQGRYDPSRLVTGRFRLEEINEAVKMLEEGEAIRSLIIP
Method: (§4) Test for Malate Semialdehyde Reductase Activity: Reaction: (L)-Malate semialdehyde+NAD(P)H→(L)-2,4-dihydroxybutyric acid+NAD(P)
(§5) The assay mixture contained 200 mM Hepes (pH 7.5), 50 mM KCl, 5 mM MgCl2, 0.24 mM NADH or NADPH, and appropriate amounts of purified enzyme. Reactions were started by adding 10 mM (L)-malate semialdehyde (malate semialdehyde was prepared freshly for each test, see Example 4). Enzymatic assays were carried out at 30° C. in 96-well flat bottomed microtiter plates in a final volume of 250 μL. The reactions were followed by the characteristic absorption of NAD(P)H at 340 nm in a microplate reader (BioRad 680XR).

[5] = target: T3, Metallosphaera sedula succinic semialdehyde reductase Ms-SSR variant H39R, SEQ ID NO: 225 (Metallosphaera sedula, UniProt A4YGN0, H39R); assay: Malate semialdehyde reductase assay, Ms-SSR H39R; type: biochemical; details: pH 7.5, 30° C.
T3 sequence (A4YGN0 1-360 H39R): T2 sequence (A4YGN0 1-360) with H39R
Method: as §4, §5
(§6) Site-directed mutagenesis was carried out using the oligonucleotide pairs listed in Table 8 and the pMs-SSR plasmid as the template. Point mutations to change the amino acid sequences were introduced by PCR (Phusion 1U, HF buffer 20% (v/v), dNTPs 2.5 mM, direct and reverse primers 1 μM each, template plasmid 200 ng, water). When possible, plasmids created by PCR contained new restriction sites (introduced using silent mutations) in addition to the functional mutation to facilitate identification of mutated clones. The PCR products were digested by DpnI at 37° C. for 1 h to remove template DNA, and transformed into NEB 5-alpha competent E. coli cells (NEB). […]

[6] = target: T4, Metallosphaera sedula succinic semialdehyde reductase Ms-SSR variant N43H, SEQ ID NO: 227 (Metallosphaera sedula, UniProt A4YGN0, N43H); assay: Malate semialdehyde reductase assay, Ms-SSR N43H; type: biochemical; details: pH 7.5, 30° C.
T4 sequence (A4YGN0 1-360 N43H): T2 sequence (A4YGN0 1-360) with N43H
Method: as §4, §5, §6

[7] = target: T5, Metallosphaera sedula succinic semialdehyde reductase Ms-SSR variant H39R N43H, SEQ ID NO: 81 (Metallosphaera sedula, UniProt A4YGN0, H39R/N43H); assay: Malate semialdehyde reductase assay, Ms-SSR H39R N43H; type: biochemical; details: pH 7.5, 30° C.
T5 sequence (A4YGN0 1-360 H39R/N43H): T2 sequence (A4YGN0 1-360) with H39R, N43H
Method: as §4, §5, §6

Compound: O=C(O)C(O)CCO (centres unmarked) [DHB, 2,4-dihydroxybutyric acid]
- Mode of inhibition of malic enzyme (malic enzyme): competitive inhibitor

Compound: NCCCC[C@H](N)C(=O)O [lysine]
- sensitivity of malate kinase activity to lysine [1]: largely insensitive
- sensitivity of malate kinase activity to lysine [2]: largely insensitive
- sensitivity of malate kinase activity to lysine [3]: largely insensitive

Compound: O=CC[C@H](O)C(=O)O [malate semialdehyde, (L)-malate semialdehyde]
- Maximum activity [4]: 4.9 μmol/(min* mgprot)
- Maximum activity [5]: 1.7 μmol/(min* mgprot)
- Maximum activity [6]: 4.3 μmol/(min* mgprot)
- Maximum activity [7]: 4.7 μmol/(min* mgprot)
